Data reported in patent publication US20040023806A1 (priority 1999, published 2004).

Tests used:
[1] = test system: Phytophthora infestans; assay type: in vivo; details: tomato plants sprayed with 0.02% active substance, infected 24 hours later, assessed 5 days after infection
[2] = test system: Venturia inaequalis; experiment: Residual protective activity against Venturia inaequalis in apples; assay type: in vivo; details: apple seedlings sprayed with 0.02% active substance, infected 24 hours later, assessed 12 days after infection
Protocol: Apple seedlings with fresh shoots 10 to 20 cm long are sprayed to runoff with an aqueous spray liquor (0.02% active substance) prepared from a wettable powder of the active substance and 24 hours later are infected with a conidia suspension of the fungus. The plants are incubated at from 90 to 100 percent relative atmospheric humidity for 5 days and placed in a greenhouse at from 20 to 24° C. for […]. Fungal infestation is assessed 12 days after infection.

[3] = test system: Aphis craccivora; experiment: Activity against Aphis craccivora; assay type: in vivo; details: pea seedlings, spray liquor 100 ppm active substance, 20° C., 3 and 6 days later
Protocol: Pea seedlings are infected with Aphis craccivora and sprayed with a spray liquor containing 100 ppm active substance and incubated at 20° C. 3 and 6 days later, the percentage reduction in the population (% activity) is determined by comparing the number of dead aphids on the treated and untreated plants.

[4] = test system: Cercospora arachidicola; experiment: Residual protective activity against Cercospora arachidicola in peanuts; assay type: in vivo; details: peanut plants sprayed with 0.02% active substance, infected 48 hours later, evaluated 12 days after infection (number and size of leaf spots)
Protocol: Peanut plants 10 to 15 cm high are sprayed to runoff with an aqueous spray liquor (0.02% active substance) prepared from a wettable powder of the active substance and 48 hours later are infected with a conidia suspension of the fungus. The plants are incubated at 21° C. and high atmospheric humidity for 72 hours and then placed in a greenhouse until the typical leaf spots appear. The activity of the active substance is evaluated 12 days after infection, on the basis of the number and size of leaf spots.

With `CO/N=C(/C(C)=N/OCc1ccccc1NC(=O)OC)c1ccc(F)cc1` the melting point was 143 to 144 °C.
In the case of `CCO/N=C(/C(C)=N/N=C/c1ccccc1N(C)C(=O)OC)c1ccc(Oc2ccc(C(F)(F)F)cc2)cc1` [Compound 1 from table a, Methyl N-methyl-[2-({2-ethoxyimino-1-methyl-2-[4-(4-trifluoromethylphenoxy)phenyl]ethylidene}hydrazonomethyl)phenyl]carbamate], the activity [1] is reported as “more than 80%” and the activity [2] is reported as “more than 80%”.
In the case of `CO/N=C(C)/C(C)=N/OCc1ccccc1NC(=O)OC` [Compound 1 from table b, Methyl [2-(2-(E)-methoxyimino-1-methyl-(E)-propylideneaminooxymethyl)phenyl]carbamate], the melting point is reported as 96.5 to 97.5 °C.
In the case of `CCON=C(C(C)=NN=Cc1ccccc1N(COC)C(=O)OC)c1ccc(Oc2ccc(C(F)(F)F)cc2)cc1` [Compound 5 from table a, methyl N-methoxymethyl-[2-({2-ethoxyimino-1-methyl-2-[4-(4-trifluoromethylphenoxy)phenyl]ethylidene}hydrazonomethyl)phenyl]carbamate], the “kill rate (% activity, reduction in population)” value [3] is reported as “more than 80%”.
In the case of `CCN(C(=O)OC)c1ccccc1CO/N=C(C)/C(C)=N/OC` [Compound 7 from table b, Methyl N-ethyl-[2-(2-(E)-methoxyimino-1-methyl-(E)-propylideneaminooxymethyl)phenyl]carbamate], the activity [4] is reported as “more than 80%” and the melting point is reported as 101 to 102 °C.
